Test results reported in patent US20260166162A1, “CARBON CHAIN SUBSTANCE FOR REGULATING TRANSMEMBRANE TRANSPORT AND FLUIDITY OF CELL MEMBRANES, AND PREPARATION AND USE THEREOF” (priority 2022, published 2026).
Where two headings read alike, the source gives them in different places.

Legend:
Type in all cases: cell-based
293T cells = assay: Cellular phagocytosis of DiD-loaded lipid vesicles (nano-drugs) by 293T cells (Example II-51, Table II-29); conditions: 293T cells pretreated 4 h, DiD lipid vesicles 2 h, n=3, untreated control 226.46 ± 1.26
HIV pseudovirus (18A-41) = conditions: 293T cells pretreated 4 h, n=3
rabies pseudovirus = conditions: n=3
human pancreatic β-cells = assay: Insulin secretion from human islet β cells (ELISA of supernatant); conditions: 6 h
Epithelial cells = assay: Interaction of GFP-labelled complexes with cell membrane of epithelial cells (Example II-52, Table II-30); conditions: GFP-labelled complex, epithelial cells pretreated 4 hours, n=3
How it was run: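 Water-soluble fatty acid complexes labelled with GFP were added to the medium of adhered epithelial cells, then the medium was replaced with plain DMEM. Membrane-associated green fluorescence intensity was quantified by image analysis, n=3.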

[1] = test system: influenza pseudovirus H7N9-Fluc; assay: microbe, parasite or virus in culture; conditions: n=3; for inhibition at 0.002 µM / inhibition at 0.005 µM / inhibition at 0.01 µM / inhibition at 0.05 µM / inhibition at 0.1 µM / inhibition at 1 µM / inhibition at 10 µM / inhibition at 50 µM / inhibition at 100 µM: Pseudovirus, H7N9, read-out: Inhibition rate (%)
[2] = 100 μM, negative value = promotes infection

Row | Molecule | Fluorescence intensity (293T cells; 2 nM) | Fluorescence intensity (293T cells; 5 nM) | Fluorescence intensity (293T cells; 10 nM) | Fluorescence intensity (293T cells; 50 nM) | Fluorescence intensity (293T cells; 100 nM) | Fluorescence intensity (293T cells; 1 uM) | Fluorescence intensity (293T cells; 10 uM) | Fluorescence intensity (293T cells; 50 uM) | Fluorescence intensity (293T cells; 100 uM) | Inhibition rate (%) (HIV pseudovirus (18A-41); 2 nM) | Inhibition rate (%) (HIV pseudovirus (18A-41); 5 nM) | Inhibition rate (%) (HIV pseudovirus (18A-41); 10 nM) | Inhibition rate (%) (HIV pseudovirus (18A-41); 50 nM) | Inhibition rate (%) (HIV pseudovirus (18A-41); 100 nM) | Inhibition rate (%) (HIV pseudovirus (18A-41); 1 μM) | Inhibition rate (%) (HIV pseudovirus (18A-41); 10 μM) | Inhibition rate (%) (HIV pseudovirus (18A-41); 50 μM) | Inhibition rate (%) (HIV pseudovirus (18A-41); [2]) | further results
1 | Cc1c(C)c2c(c(C)c1O)CCC(C)(CCCC(C)CCCC(C)CCCC(C)C)O2 (stereo not drawn) [Vitamin-E, Vitamin E] | 100.41 ± 4.43 | 86.35 ± 2.47 | 67.85 ± 1.43 | 46.81 ± 1.48 | 22.67 ± 0.03 | 417.43 ± 15.23 | 217.04 ± 7.44 | 87.50 ± 2.33 | 92.89 ± 5.33 | 55.66 ± 6.03 | 61.87 ± 5.06 | 70.04 ± 4.65 | 79.33 ± 5.89 | 89.99 ± 8.97 | -84.33 ± 6.36 | 4.16 ± 0.11 | 61.36 ± 8.64 | 58.98 ± 6.37 | –
2 | CC/C=C\C/C=C\C/C=C\C/C=C\C/C=C\C/C=C\CCC(=O)OCC(O)C1OC(=O)C(O)=C1O (stereo not drawn) [Ascorbic Acid-DHA] | 98.37 ± 7.89 | 92.26 ± 8.23 | 69.70 ± 4.55 | 73.98 ± 5.36 | 243.38 ± 11.00 | 253.70 ± 10.23 | 58.97 ± 1.55 | 39.02 ± 1.03 | 19.86 ± 0.23 | – | – | – | – | – | – | – | – | – | Inhibition rate (%) (rabies pseudovirus; 2 nM): 51.40 ± 1.54%; Inhibition rate (%) (rabies pseudovirus; 5 nM): 51.99 ± 3.99%; Inhibition rate (%) (rabies pseudovirus; 10 nM): 64.84 ± 6.57%; Inhibition rate (%) (rabies pseudovirus; 50 nM): 70.88 ± 4.22%; Inhibition rate (%) (rabies pseudovirus; 100 nM): 79.06 ± 2.39%; Inhibition rate (%) (rabies pseudovirus; 1 μM): 14.83 ± 4.26%; Inhibition rate (%) (rabies pseudovirus; 10 μM): 34.88 ± 5.99%; Inhibition rate (%) (rabies pseudovirus; 50 μM): 95.55 ± 6.98%; Inhibition rate (%) (rabies pseudovirus; 100 μM): 99.08 ± 6.36%
3 | CCCCCCCC/C=C\CCCCCCCC(=O)OCCO [Ethylene glycol-OA] | – | – | – | – | – | – | – | – | – | 82.74 ± 5.06 | 83.09 ± 3.25 | 89.89 ± 4.06 | 94.33 ± 6.32 | 93.46 ± 3.23 | -92.33 ± 2.66 | -84.04 ± 6.24 | 79.46 ± 8.46 | 86.47 ± 5.86 | –
4 | CCCCCCCCCCCCCCCCCCCC(=O)OC(C)C(N)C(=O)O (stereo not drawn) [Thr-arachidic acid] | – | – | – | – | – | – | – | – | – | – | – | – | – | – | – | – | – | – | Insulin (human pancreatic β-cells; 2 nM): 0.32 ng/mL; Insulin (human pancreatic β-cells; 5 nM): 0.31 ng/mL; Insulin (human pancreatic β-cells; 10 nM): 0.43 ng/mL; Insulin (human pancreatic β-cells; 50 nM): 0.51 ng/mL; Insulin (human pancreatic β-cells; 50 μM): 1.46 ng/mL; Insulin (human pancreatic β-cells; 100 μM): 1.42 ng/mL; Mean fluorescence intensity (Epithelial cells; 0 Hours after medium replaced): 109.4 ± 3.7; Mean fluorescence intensity (Epithelial cells; 2 Hours after medium replaced): 104.4 ± 5.4; Mean fluorescence intensity (Epithelial cells; 4 Hours after medium replaced): 91.5 ± 6.7; Mean fluorescence intensity (Epithelial cells; 8 Hours after medium replaced): 54.3 ± 7.2; Mean fluorescence intensity (Epithelial cells; 12 Hours after medium replaced): 41.4 ± 3.4; Mean fluorescence intensity (Epithelial cells; 24 Hours after medium replaced): 34.2 ± 5.2
5 | CCCCCC/C=C\CCCCCCCC(=O)OC(C)C(N)C(=O)O (stereo not drawn) [Threonine-c-9-hexadecanoic acid] | – | – | – | – | – | – | – | – | – | – | – | – | – | – | – | – | – | – | Inhibition rate (%) ([1]; 2 nM): 56.47 ± 5.47%; Inhibition rate (%) ([1]; 5 nM): 79.21 ± 5.22%; Inhibition rate (%) ([1]; 10 nM): 60.86 ± 4.03%; Inhibition rate (%) ([1]; 50 nM): 59.03 ± 1.64%; Inhibition rate (%) ([1]; 100 nM): 68.64 ± 2.03%; Inhibition rate (%) ([1]; 1 μM): 12.84 ± 1.03%; Inhibition rate (%) ([1]; 10 μM): 34.49 ± 4.49%; Inhibition rate (%) ([1]; 50 μM): 71.06 ± 4.08%; Inhibition rate (%) ([1]; 100 μM): 78.34 ± 4.39%
6 | C=CCCCCCCCCC(=O)[O-].[Na+] [Sodium undecylenate] | 135.63 ± 7.06 | 100.34 ± 8.06 | 89.79 ± 4.98 | 62.57 ± 3.60 | 57.18 ± 5.23 | 232.89 ± 12.26 | 325.29 ± 15.22 | 63.77 ± 3.37 | 58.70 ± 2.66 | – | – | – | – | – | – | – | – | – | inhibition at 0.002 µM ([1]; 2 nM): 30.5 ± 2.36%; inhibition at 0.005 µM ([1]; 5 nM): 22.1 ± 2.14%; inhibition at 0.01 µM ([1]; 10 nM): 53 ± 5.03%; inhibition at 0.05 µM ([1]; 50 nM): 56.3 ± 5.03%; inhibition at 0.1 µM ([1]; 100 nM): 53 ± 4.06%; inhibition at 1 µM ([1]; 1 μM): -7.39 ± 0.22%; inhibition at 10 µM ([1]; 10 μM): 40.2 ± 3.23%; inhibition at 50 µM ([1]; 50 μM): 71.4 ± 3.26%; inhibition at 100 µM ([1]; 100 μM): 54 ± 4.39%
7 | Glucose-hexadecanoic acid | – | – | – | – | – | – | – | – | – | 50.54 ± 1.56 | 57.26 ± 6.09 | 86.44 ± 5.03 | 85.46 ± 3.99 | 89.99 ± 5.07 | -94.23 ± 9.06 | -44.88 ± 1.03 | 87.59 ± 5.03 | 98.87 ± 6.03 | –
8 | CCCCCCCCCC(=O)O [N-decanoic acid] | 131.26 ± 8.63 | 114.00 ± 11.2 | 94.34 ± 7.54 | 96.63 ± 6.99 | 143.94 ± 13.26 | 237.62 ± 17.5 | 147.74 ± 14.23 | 135.74 ± 15.2 | 127.34 ± 12.22 | – | – | – | – | – | – | – | – | – | Inhibition rate (%) ([1]; 2 nM): 35.04 ± 2.04%; Inhibition rate (%) ([1]; 5 nM): 31.86 ± 2.23%; Inhibition rate (%) ([1]; 10 nM): 66.11 ± 2.33%; Inhibition rate (%) ([1]; 50 nM): 75.38 ± 2.03%; Inhibition rate (%) ([1]; 100 nM): 75.54 ± 4.00%; Inhibition rate (%) ([1]; 1 μM): -32.33 ± 1.56%; Inhibition rate (%) ([1]; 10 μM): -54.38 ± 4.38%; Inhibition rate (%) ([1]; 50 μM): 41.08 ± 4.08%; Inhibition rate (%) ([1]; 100 μM): 47.98 ± 3.09%
9 | Ascorbic acid-undecanedioic acid | – | – | – | – | – | – | – | – | – | – | – | – | – | – | – | – | – | – | Inhibition rate (%) ([1]; 2 nM): 36.88 ± 5.99%; Inhibition rate (%) ([1]; 5 nM): 70.10 ± 2.01%; Inhibition rate (%) ([1]; 10 nM): 71.74 ± 5.03%; Inhibition rate (%) ([1]; 50 nM): 67.01 ± 5.59%; Inhibition rate (%) ([1]; 100 nM): 74.96 ± 2.33%; Inhibition rate (%) ([1]; 1 μM): 32.33 ± 2.37%; Inhibition rate (%) ([1]; 10 μM): 44.08 ± 1.28%; Inhibition rate (%) ([1]; 50 μM): 83.56 ± 4.03%; Inhibition rate (%) ([1]; 100 μM): 73.01 ± 4.05%
10 | CCC=CCC=CCC=CCC=CCC=CCCCC(=O)OCC(O)C1OC(=O)C(O)=C1O (stereo not drawn) [Ascorbic Acid-EPA] | – | – | – | – | – | – | – | – | – | 72.04 ± 6.02 | 68.76 ± 5.79 | 86.46 ± 3.84 | 97.33 ± 5.33 | 98.77 ± 3.22 | -82.83 ± 7.59 | -64.54 ± 5.62 | 80.74 ± 4.76 | 82.84 ± 4.75 | –
11 | Glucosamine-n-octanoic acid | – | – | – | – | – | – | – | – | – | 22.59 ± 6.09 | 54.47 ± 2.09 | 78.34 ± 3.66 | 89.33 ± 3.65 | 88.76 ± 4.87 | -62.33 ± 3.93 | -84.26 ± 6.61 | 51.09 ± 9.38 | 53.68 ± 6.07 | –
12 | CCCCCCCCC(=O)O [Nonanoic acid] | 157.30 ± 7.06 | 176.50 ± 7.06 | 106.35 ± 4.65 | 98.90 ± 8.26 | 106.35 ± 5.06 | 243.20 ± 13.65 | 135.36 ± 11.03 | 64.86 ± 5.54 | 104.28 ± 10.25 | – | – | – | – | – | – | – | – | – | inhibition at 0.002 µM ([1]; 2 nM): 42 ± 3.06%; inhibition at 0.005 µM ([1]; 5 nM): 49.7 ± 1.56%; inhibition at 0.01 µM ([1]; 10 nM): 58.3 ± 4.02%; inhibition at 0.05 µM ([1]; 50 nM): 57.3 ± 1.66%; inhibition at 0.1 µM ([1]; 100 nM): 36.4 ± 2.33%; inhibition at 1 µM ([1]; 1 μM): -4.93 ± 0.23%; inhibition at 10 µM ([1]; 10 μM): 34.8 ± 3.06%; inhibition at 50 µM ([1]; 50 μM): 40.1 ± 1.23%; inhibition at 100 µM ([1]; 100 μM): 43.8 ± 4.38%
